{"source": "patent US20200045967A1", "about": "“NOVEL TRIAZOLE DERIVATIVES” (Bayer CropScience Aktiengesellschaft, priority 2017, published 2020)", "key": {"[1]": {"assay": "Log P by HPLC on reversed phase columns (EEC directive 79/831 Annex V.A8)", "type": "physicochemical", "conditions": "method [a]: LC-UV, acidic range, 0.1% formic acid in water and acetonitrile", "method": "If more than one Log P value is available within the same method, all the values are given and separated by “+”. Calibration was done with straight-chain alkan2-ones (with 3 to 16 carbon atoms) with known Log P values (measurement of Log P values using retention times with linear interpolation between successive alkanones). Lambda-max-values were determined using UV-spectra from 200 nm to 400 nm and the peak values of the chromatographic signals."}, "Botrytis cinerea": {"system": "Botrytis cinerea", "assay": "Example G1: in vivo preventive test on Botrytis cinerea (grey mould), comparison", "conditions": "rate of application 500 ppm; gherkin; evaluated 4 to 5 days after inoculation", "method": "(§1) Young plants of gherkin were treated by spraying the active ingredient prepared as described above. Control plants were treated only with an aqueous solution of acetone/dimethyl sulfoxide/Tween®. After 24 hours, the plants were contaminated by spraying the leaves with an aqueous suspension of Botrytis cinerea spores."}, "Puccinia recondita": {"system": "Puccinia recondita", "assay": "Example G2: in vivo preventive test on Puccinia recondita (brown rust on wheat), comparison", "conditions": "evaluated 11 days after inoculation", "method": "as §1, with “wheat” for “gherkin”, “Puccinia recondita” for “Botrytis cinerea”"}, "Fusarium culmorum": {"system": "Fusarium culmorum", "assay": "Example G3: in vitro test for the calculation of the ED50-value with microorganisms, Fusarium culmorum", "type": "cell-based", "conditions": "liquid culture, spore suspension, 4 to 7 days incubation, spectrometric measurement of mycelium growth", "method": "• Solvent: DMSO • Culture medium: 14.6 g anhydrous D-glucose (VWR), 7.1 g mycological peptone (Oxoid), 1.4 g granulated yeast extract (Merck), supplemented with water to a total volume of 1 liter • Inoculum: spore suspension\nFungicides were solubilized in DMSO and the solution used to prepare the required range of concentrations. The final concentration of DMSO used in the assay was <1% by weight.\nA spore suspension was prepared and diluted to the desired spore density.\nFungicides were evaluated for their ability to inhibit spore germination and mycelium growth in liquid culture assay. The compounds were added in the desired concentration to the culture medium with spores. After 4 to 7 days incubation, fungi-toxicity of compounds was determined by spectrometric measurement of mycelium growth. Inhibition of fungal growth was determined by comparing the absorbance values in wells containing the fungicides with the absorbance in control wells without fungicides."}, "Pyricularia oryzae": {"system": "Pyricularia oryzae", "type": "cell-based", "conditions": "liquid culture, spore suspension, 4 to 7 days incubation, spectrometric measurement of mycelium growth"}, "[2]": {"system": "Colletotrichum lindemuthianum", "assay": "Example G3: in vitro test for the calculation of the ED50-value with microorganisms, Colletotrichum lindemuthianum", "type": "cell-based", "conditions": "liquid culture, spore suspension, 4 to 7 days incubation, spectrometric measurement of mycelium growth"}, "Sphaerotheca fuliginea": {"system": "Sphaerotheca fuliginea", "assay": "Example G4: in vivo preventive Sphaerotheca test (cucumbers)", "conditions": "evaluated 7 days after inoculation", "method": "Solvent: 24.5 parts by weight of acetone • 24.5 parts by weight of dimethylacetamide Emulsifier: 1 part by weight of alkylaryl polyglycol ether To produce a suitable preparation of active compound, 1 part by weight of active compound is mixed with the stated amounts of solvent and emulsifier, and the concentrate is diluted with water to the desired concentration. To test for preventive activity, young plants are sprayed with the preparation of active compound at the stated rate of application. After the spray coating has dried on, the plants are inoculated with an aqueous spore suspension of Sphaerotheca fuliginea."}, "Septoria tritici [3]": {"system": "Septoria tritici", "assay": "Example G5: in vivo preventive Septoria tritici test (wheat)", "conditions": "rate of application 500 ppm, evaluated 21 days after inoculation", "method": "Solvent: 49 parts by weight of N,N-dimethylacetamide Emulsifier: 1 part by weight of alkylaryl polyglycol ether To produce a suitable preparation of active compound, 1 part by weight of active compound is mixed with the stated amounts of solvent and emulsifier, and the concentrate is diluted with water to the desired concentration. To test for preventive activity, young plants are sprayed with the preparation of active compound or active compound combination at the stated rate of application. After the spray coating has been dried, the plants are sprayed with a spore suspension of Septoria tritici."}, "Septoria tritici [4]": {"system": "Septoria tritici", "assay": "Example G6: in vivo curative Septoria tritici test (wheat)", "conditions": "sprayed 48 hours after the incubation, rate of application 500 ppm, evaluated 21 days after inoculation"}, "Septoria tritici [5]": {"system": "Septoria tritici", "assay": "Example G7: in vivo 5 days preventive Septoria tritici test (wheat)", "conditions": "inoculated 5 days after spraying, rate of application 500 ppm, evaluated 21 days after inoculation", "method": "Solvent: 49 parts by weight of N,N-dimethylacetamide Emulsifier: 1 part by weight of alkylaryl polyglycol ether To produce a suitable preparation of active compound, 1 part by weight of active compound is mixed with the stated amounts of solvent and emulsifier, and the concentrate is diluted with water to the desired concentration. To test for preventive and long-lasting activity, young plants are sprayed with a preparation of active compound or active compound combination at the stated rate of application."}}, "data": [{"smiles": "O=Cc1ccc(Oc2ccc(C(O)Cn3cncn3)c(C(F)(F)F)n2)cc1", "note": "(stereo not shown) [Compound I-01, 4-[[5-[1-hydroxy-2-(1,2,4-triazol-1-yl)ethyl]-6-(trifluoromethyl)-2-pyridyl]oxy]benzaldehyde]", "values": [{"measurement": "chromatographic logP", "setting": "[1]; compounds of formula (I)", "value": 1.91}]}, {"smiles": "ON=Cc1ccc(Oc2ccc(C(O)Cn3cncn3)c(C(F)(F)F)n2)cc1", "note": "(stereo not shown) [Compound I-04, 4-[[5-[1-hydroxy-2-(1,2,4-triazol-1-yl)ethyl]-6-(trifluoromethyl)-2-pyridyl]oxy]benzaldehyde Oxime]", "values": [{"measurement": "chromatographic logP", "setting": "[1]; compounds of formula (I)", "value": 2.26}]}, {"smiles": "CSc1ccc(Oc2ccc(C(C)(O)Cn3cncn3)c(C(F)(F)F)n2)cc1", "note": "(stereo not shown) [Compound I-03, 2-[6-(4-methylsulfanylphenoxy)-2-(trifluoromethyl)-3-pyridyl]-1-(1,2,4-triazol-1-yl)propan-2-ol]", "values": [{"measurement": "chromatographic logP", "setting": "[1]; compounds of formula (I)", "value": 2.74}, {"measurement": "Efficacy in %", "setting": "Botrytis cinerea", "value": 90, "unit": "%"}, {"measurement": "Efficacy in %", "setting": "Puccinia recondita; rate of application 100 ppm", "value": 65, "unit": "%"}, {"measurement": "Efficacy in %", "setting": "Puccinia recondita; rate of application 500 ppm", "value": 88, "unit": "%"}, {"measurement": "Fusarium culmorum ED50 value in ppm", "setting": "Fusarium culmorum", "value": 0.83, "unit": "ppm"}, {"measurement": "Pyricularia oryzae ED50 value in ppm", "setting": "Pyricularia oryzae", "value": 1.7, "unit": "ppm"}, {"measurement": "Colletotrichum lindemuthianum ED50 value in ppm", "setting": "[2]", "value": 0.38, "unit": "ppm"}, {"measurement": "Efficacy in %", "setting": "Sphaerotheca fuliginea; rate of application 10 ppm", "value": 78, "unit": "%"}, {"measurement": "Efficacy in %", "setting": "Sphaerotheca fuliginea; rate of application 100 ppm", "value": 100, "unit": "%"}, {"measurement": "Efficacy in %", "setting": "Septoria tritici [3]", "value": 78, "unit": "%"}, {"measurement": "Efficacy in %", "setting": "Septoria tritici [4]", "value": 93, "unit": "%"}, {"measurement": "Efficacy in %", "setting": "Septoria tritici [5]", "value": 71, "unit": "%"}]}, {"smiles": "CSc1ccc(Oc2ccc(C(C)(O)Cn3cncn3)c(C(F)(F)F)c2)cc1", "note": "(stereo not shown) [Comparative compound, reference compound]", "values": [{"measurement": "Efficacy in %", "setting": "Botrytis cinerea", "value": 69, "unit": "%"}, {"measurement": "Efficacy in %", "setting": "Puccinia recondita; rate of application 100 ppm", "value": 25, "unit": "%"}, {"measurement": "Efficacy in %", "setting": "Puccinia recondita; rate of application 500 ppm", "value": 88, "unit": "%"}, {"measurement": "Fusarium culmorum ED50 value in ppm", "setting": "Fusarium culmorum", "value": 2.6, "unit": "ppm"}, {"measurement": "Pyricularia oryzae ED50 value in ppm", "setting": "Pyricularia oryzae", "value": 5.6, "unit": "ppm"}, {"measurement": "Colletotrichum lindemuthianum ED50 value in ppm", "setting": "[2]", "value": 0.83, "unit": "ppm"}, {"measurement": "Efficacy in %", "setting": "Sphaerotheca fuliginea; rate of application 10 ppm", "value": 28, "unit": "%"}, {"measurement": "Efficacy in %", "setting": "Sphaerotheca fuliginea; rate of application 100 ppm", "value": 100, "unit": "%"}, {"measurement": "Efficacy in %", "setting": "Septoria tritici [3]", "value": 22, "unit": "%"}, {"measurement": "Efficacy in %", "setting": "Septoria tritici [4]", "value": 57, "unit": "%"}, {"measurement": "Efficacy in %", "setting": "Septoria tritici [5]", "value": 29, "unit": "%"}]}, {"smiles": "CSc1ccc(Oc2ccc(C(=O)Cn3cncn3)c(C(F)(F)F)n2)cc1", "note": "[VII-02, 1-[6-(4-methylsulfanylphenoxy)-2-(trifluoromethyl)-3-pyridyl]-2-(1,2,4-triazol-1-yl)ethanone]", "values": [{"measurement": "chromatographic logP", "setting": "[1]; compounds of formula (VII)", "value": 2.92}]}, {"smiles": "C#Cc1ccc(Oc2ccc(C(=O)Cn3cncn3)c(C(F)(F)F)n2)cc1", "note": "[VII-04, 1-[6-(4-ethynylphenoxy)-2-(trifluoromethyl)-3-pyridyl]-2-(1,2,4-triazol-1-yl)ethanone]", "values": [{"measurement": "chromatographic logP", "setting": "[1]; compounds of formula (VII)", "value": 2.63}]}, {"smiles": "O=Cc1ccc(Oc2ccc(C(=O)Cn3cncn3)c(C(F)(F)F)n2)cc1", "note": "[VII-01, 4-[[5-[2-(1,2,4-triazol-1-yl)acetyl]-6-(trifluoromethyl)-2-pyridyl]oxy]benzaldehyde]", "values": [{"measurement": "chromatographic logP", "setting": "[1]; compounds of formula (VII)", "value": 2.12}]}, {"smiles": "CSc1ccc(Oc2ccc(C(C)=O)c(C(F)(F)F)n2)cc1", "note": "[Compound V-02, 1-[6-(4-methylsulfanylphenoxy)-2-(trifluoromethyl)-3-pyridyl]ethanone]", "values": [{"measurement": "chromatographic logP", "setting": "[1]; compounds of formula (V)", "value": 3.7}]}, {"smiles": "CC(=O)c1ccc(Oc2ccc(C3OCCO3)cc2)nc1C(F)(F)F", "note": "[Compound V-01, 1-[6-[4-(1,3-dioxolan-2-yl)phenoxy]-2-(trifluoromethyl)-3-pyridyl]ethanone]", "values": [{"measurement": "chromatographic logP", "setting": "[1]; compounds of formula (V)", "value": 2.98}]}, {"smiles": "CSc1ccc(Oc2ccc(C(O)Cn3cncn3)c(C(F)(F)F)n2)cc1", "note": "(stereo not shown) [Compound I-02, 1-[6-(4-methylsulfanylphenoxy)-2-(trifluoromethyl)-3-pyridyl]-2-(1,2,4-triazol-1-yl)ethanol]", "values": [{"measurement": "chromatographic logP", "setting": "[1]; compounds of formula (I)", "value": 2.59}]}]}
